Results from patent publication US8110543B2, “Anti-invasive and anti-angiogenic compositions” (Angstrom Pharmaceuticals, Inc., priority 1997, dated 2012).
Entries after “also recorded” stand apart in the source; their conditions may differ.

How the values were obtained:
Mat B-III tumors = assay: Rat syngeneic Mat B-III breast cancer model; format: in vivo; conditions: 75 mg/kg/day IP b.i.d.
3LL cells = assay: Tumor angiogenesis (microvessel density) in 3LL model; format: in vivo, Mice; conditions: 100-250 mg/kg/day; compared to controls
Protocol: Angiogenesis is measured by determining microvessel density using immunostaining for CD31 (also known as platelet-endothelial cell adhesion molecule or PECAM). Results are reported as the average microvessel density of 5 fields each from 5 different sections (Penfold et al., 1996). Typically, the whole tumor is excised, sectioned and the sections examined histologically for microvessel density using appropriate stains or labels for other markers.
Angiogenesis induced by tumor growth and metastasis in vivo is examined in the models systems described above. Mice injected with 3LL cells are treated either with peptide or with vehicle and are sacrificed at various time points. Angiogenesis is assessed by determining microvessel density (MVD) using an antibody specific for microvascular endothelium or other markers of growing blood vessels, such as PECAM (CD31). Such an antibody is employed in conventional immunohistological methods to immunostain tissue sections as described by Penfold et al., supra. A large number of such antibodies is commercially available, for example the JC70 mAb. The MVD are correlated with other measures of tumor behavior including lymph node status and primary tumor size and rate of growth. In humans as reported by Penfold et al., supra, tumor MVD correlates with lymph node metastasis and is independent of tumor size, growth rate or type of histological differentiation.
The compounds are given i.v., i.p., or by osmotic minipump Typical dosages are 100-250 mg/kg/day. At various time points, two animals are sacrificed, and the tumor tissue and surrounding tissue is prepared for histological examination. Results are reported as the average microvessel density of 5 fields each from 5 different sections. The following seven compounds are tested: Ac-[…]-Am (SEQ ID NO:2), Ac-[…]-Am (SEQ ID NO: 6) (disubstitution variant at positions 3 and 4), Ac-[…]-Am (SEQ ID NO: 7) (disubstitution variant at positions 7 and 8), Ac-[…]-Am (SEQ ID NO: 8) (substitution variant at position 1), Ac-PSSPPEE-Am (SEQ ID NO: 4) (deletion variant, position 1 of SEQ ID NO:2 deleted), Ac-KPSSPPE-Am (SEQ ID NO: 5) (deletion variant, position 8 of SEQ ID NO:2 deleted), and Ac-[…]-Am (SEQ ID NO:1).

[1] = test system: matrix metalloproteinases MMP2 and MMP9; assay: EnzCheck gelatinase assay (MMP activity); format: biochemical; conditions: concentrations up to 100 μM; HT1080 supernatant activated with phenylmercuric acetate
Protocol: HT1080 cells were grown in the presence of dexamethasone for 24 hrs and the supernatant collected and treated with phenylmercuric acetate to activate proMMPs.

HUVEC = HUVEC proliferation assay; format: cell-based, human
Protocol: HUVEC were plated on gelatin and allowed to adhere for 4 hrs in the presence of 2% FBS. bFGF (1 ng/mL) and the test compounds were added after 4 hours and the % proliferation (where bFGF induced proliferation was 100% and proliferation in the absence of bFGF was 0) was determined using MTS. FIG. 4: the Å6 (50 μg/mL) concentration was kept constant and the concentration of cisplatin (“CDDP”) was varied; FIG. 5: CDDP was kept constant at a sub-optimal dose (1 μg/mL) and Å6 was varied.
Å6 was tested for its ability to inhibit HUVEC proliferation.

[2] = cynomolgus monkey, in vivo, iv, 37.5 mg/kg
Description: An LC/MS assay developed for the detection of Å6 in plasma has been validated for mouse and monkey plasma.

uPAR = uPAR (Homo sapiens, UniProt Q03405); assay: Binding of uPA to uPAR
Chain of uPAR (Q03405 23-305 limits assumed): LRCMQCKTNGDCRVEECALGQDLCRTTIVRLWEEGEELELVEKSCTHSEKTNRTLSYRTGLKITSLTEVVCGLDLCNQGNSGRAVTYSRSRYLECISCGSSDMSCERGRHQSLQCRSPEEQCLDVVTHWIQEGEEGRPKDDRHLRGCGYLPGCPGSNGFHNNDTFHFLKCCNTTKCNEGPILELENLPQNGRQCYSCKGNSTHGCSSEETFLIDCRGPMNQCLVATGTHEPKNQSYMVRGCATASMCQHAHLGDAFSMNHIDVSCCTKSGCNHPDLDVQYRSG

PC-3 cells = assay: PC-3 CAT metastasis model; format: in vivo, mice; conditions: minipump 100 mg/kg/day, 14 or 21 days
Protocol: The compounds of this invention are also tested for inhibition of late metastasis using an experimental metastasis model (Crowley et al., 1993). Late metastasis involves the steps of attachment and extravasation of tumor cells, local invasion, seeding, proliferation and angiogenesis.
Human prostatic carcinoma cells (PC-3) transfected with a reporter gene, preferably the green fluorescent protein (GFP) gene, but as an alternative with a gene encoding the enzymes chioramphenicol acetyl-transferase (CAT), luciferase or LacZ. This permits utilization of either of these markers (fluorescence detection of GFP or histochemical colorimetric detection of enzymatic activity) for following the fate of these cells. Cells are injected, preferably iv, and metastases identified after about 14 days, particularly in the lungs but also in regional lymph nodes, femurs and brain. This mimics the organ tropism of naturally occurring metastases of prostate cancer. For example, GFP-expressing PC-3 cells (1×10^6 cells per mouse) are injected iv into the tail veins of nude (nu/nu) mice. Animals are also implanted with mini-pumps (sub-dermally on the back) dispensing either the test compound (at least about 100 mg/kg/day) or vehicle. The animals are euthanized after 14 days and their organs prepared for histological examination. Single metastatic cells and foci are visualized and quantitated by fluorescence microscopy or light microscopic histochemistry or by grinding the tissue and quantitative colorimetric assay of the detectable label.
In addition to Å6, other related peptide compounds described above are tested for efficacy in vivo in the 3LL model (as provided above) as well as the PC-3 model. PC-3 cells transfected with the gene encoding the enzyme chloramphenicol acetyl-transferase (CAT) are inoculated into mice i.v. at doses of 1×10^6 cells per mouse. These mice are implanted with a minipump, as above, which dispenses 100 mg/kg/day of the peptide or vehicle over a period of 14 or 21 days. At termination of treatment, the animals are euthanized and the tumor marker probe is assayed in regional lymph nodes, femurs, lungs, and brain.

## Ac-KPSSPPEE-NH2 [Å6, CH3CO-Lys-Pro-Ser-Ser-Pro-Pro-Glu-Glu-NH2]
Mat B-III tumors
  macroscopic metastasis (number of macroscopic foci): continued to be suppressed; also recorded: inhibited
  tumor growth (volume of primary tumor): inhibits
3LL cells
  number of microvessels in the region of the primary tumor: significant reduction
[1]
  inhibition of gelatinase activity: did not inhibit
HUVEC; CDDP 1 μg/mL, Å6 varied (FIG. 5)
  potentiation of the anti-proliferative activity of cisplatin (CDDP) against endothelial cells: did not potentiate
HUVEC; concentrations as high as 312 μg/mL (340 μM), gelatin, 2% FBS
  inhibition of HUVEC proliferation: No inhibition
[2]
  clearance: 0.042 L/h/kg
  half-life: 24 min
uPAR
  inhibition of binding of uPA to uPAR: no effect
PC-3 cells
  metastasis, PC-3 model: markedly inhibited
